Data: patent US11802127B2, “3,4-dihydro-2,7-naphthyridine-1,6(2H,7H)-diones as MEK inhibitors” (Pfizer Inc., priority 2021, dated 2023)

test: PK (Free Brain-to-Free Plasma Ratio) (Mouse); assay type: in vivo; settings: brain and plasma, male CD-1 mice, oral gavage 10 mg/kg, sampling 2, 4, 8, 12 and 24 hours, (B/P)*(Bfu/Pfu)
Protocol: The ability of representative compounds to penetrate the BBB in mice was determined by evaluating the unbound brain-to-unbound plasma (also referred to as free brain-to-free plasma) concentration ratio in male CD-1 mice.
Brain compound levels were generated from oral mouse PK dosing with typical sampling times of 2, 4, 8, 12 and 24 hours post oral gavage dosing at 10 mg/kg. Brain samples were stored at −20±5° C. prior to analysis. Concentrations of test compound in mouse brain homogenate were determined by liquid chromatography tandem mass spectrometry (LC-MS/MS) following protein precipitation with acetonitrile. A 12-point calibration curve, ranging from 0.5 to 10,000 ng/mL, was prepared in duplicate. A solution of 400 μg/mL of test compound in dimethyl sulfoxide (DMSO) was serially diluted (3-fold) in 100% DMSO, and then 2.5 μL of each standard solution was added to 100 μL of naïve male CD-1 mice brain homogenate. To mimic the extraction in the standard curve, 2.5 μL of DMSO was added to all test samples. Both calibration and test brain homogenate samples were spiked with 10 μL of an IS (1 μg/mL of a structural analog). Brain homogenate was generated by adding 0.75 mL of 4:1 water:MeOH to each brain sample followed by homogenization for 1 minute with bead beater tubes a 6 m/s using an MP Fast Prep-24®. Proteins were precipitated from 100 μL of brain homogenate sample by the addition of 300 μL of acetonitrile. Samples were vortex-mixed for 5 minutes and spun in an Allegra X-12R centrifuge (Beckman Coulter, Fullerton, CA; SX4750A rotor) for 15 min at about 1,500×g at 4° C. A 100 μL aliquot of each supernatant was transferred via a 550 μL Personal Pipettor (Apricot Designs, Monrovia, CA) to 96-well plates and diluted 1:1 with HPLC grade water. The resulting plates were sealed with aluminum for LC-MS/MS analysis.
Brain-to-plasma ratios were calculated using the concentration of compound measured in the brain divided by the concentration of compound measured in the plasma. Brain-to-plasma ratios were always generated from a single animal and time point. Free brain-to-free plasma ratios were calculated by multiplying the brain-to-plasma ratio by the in vitro brain homogenate free fraction divided by the in vitro plasma free fraction using the following equation: (B/P)*(Bfu/Pfu).

Row | Structure (SMILES) | Kp,uu (unbound brain-to-unbound plasma ratio)
1 | CCc1ccc(Nc2c3c(cc(=O)n2C)CCN(OCCO)C3=O)c(F)c1 [Example 14, 8-((4-ethyl-2-fluorophenyl)amino)-2-(2-hydroxyethoxy)-7-methyl-3,4-dihydro-2,7-naphthyridine-1,6(2H,7H)-dione] | 0.57 to 1.58
2 | Cc1c2c(c(Nc3ccc(Br)cc3F)n(C)c1=O)C(=O)N(OCCO)CC2 [Example 36, 8-((4-bromo-2-fluorophenyl)amino)-2-(2-hydroxyethoxy)-5,7-dimethyl-3,4-dihydro-2,7-naphthyridine-1,6(2H,7H)-dione] | 0.83 to 2.09
3 | Cn1c(Nc2ccc(OC(F)F)cc2F)c2c(cc1=O)CCN(OCCO)C2=O [Example 22, 8-((4-(difluoromethoxy)-2-fluorophenyl)amino)-2-(2-hydroxyethoxy)-7-methyl-3,4-dihydro-2,7-naphthyridine-1,6(2H,7H)-dione] | 0.33 to 2.92

The next lines start with the values.

Row | Kp,uu (unbound brain-to-unbound plasma ratio) | Structure (SMILES)
4 | 0.88 to 1.26 | CSc1ccc(Nc2c3c(cc(=O)n2C)CCN(OCCO)C3=O)c(F)c1 [Example 6, 8-((2-fluoro-4-(methylthio)phenyl)amino)-2-(2-hydroxyethoxy)-7-methyl-3,4-dihydro-2,7-naphthyridine-1,6(2H,7H)-dione]
5 | 0.62 to 1.06 | Cn1c(Nc2ccc(Br)cc2F)c2c(cc1=O)CCN(OCCO)C2=O [Example 7, 8-((4-bromo-2-fluorophenyl)amino)-2-(2-hydroxyethoxy)-7-methyl-3,4-dihydro-2,7-naphthyridine-1,6(2H,7H)-dione]
6 | 1.01 to 16.1 | Cn1c(Nc2ccc(I)cc2F)c2c(cc1=O)CCN(OCCO)C2=O [Example 8, 8-((2-fluoro-4-iodophenol)amino)-2-(2-hydroxyethoxy)-7-methyl-3,4-dihydro-2,7-naphthyridine-1,6(2H,7H)-dione]
